Test results taken from ChEMBL document CHEMBL4831517, “Optimization of a Series of RIPK2 PROTACs” (J Med Chem, 2021).
≈ marks a conversion by molar mass, not a printed value. Calls of active or inactive are those of the source. No cut-off for these calls is given here.

Legend:
[1] = target: E3 ubiquitin-protein ligase XIAP/Receptor-interacting serine/threonine-protein kinase 2 (Homo sapiens, UniProt O43353+P98170); assay: Protac activity at IAP/RIPK2 in human whole blood assessed as inhibition of MDP-induced TNFalpha production by ELISA; type: tissue-based
[2] = Solubility of the compound by chemiluminescent nitrogen detection (CLND) method; type: physicochemical
[3] = Metabolic stability in human liver microsomes assessed as intrinsic clearance using pH 7.4 phosphate buffer incubated for 45 mins by LC-MS/MS analysis; type: ADME, Microsome; details: pH 7.4, 0.75 h
[4] = Metabolic stability in rat liver microsomes assessed as intrinsic clearance using pH 7.4 phosphate buffer incubated for 45 mins by LC-MS/MS analysis; type: ADME, Microsome; details: pH 7.4, 0.75 h
[5] = target: Receptor-interacting serine/threonine-protein kinase 2 (Homo sapiens, UniProt O43353); assay: Inhibition of full length His-tagged RIPK2 (unknown origin) expressed in baculovirus expression system using fluorescent labelled ATP competitive ligand by fluorescent polarization based binding assay
Rattus norvegicus [6] = assay: (§1) Ex vivo protac activity at IAP/RIPK2 in rat assessed as RIPK2 degradation at 0.5 mg/kg, sc measured for 8 to 48 hrs; type: functional; details: time 8-48 hrs
Rattus norvegicus [7] = assay: (§2) Ex vivo protac activity at IAP/RIPK2 in rat assessed as inhibition of MDP-induced TNFalpha release at 0.5 mg/kg, sc measured for 8 to 48 hrs; type: functional; details: time 8-48 hrs
[8] = target: E3 ubiquitin-protein ligase XIAP (Homo sapiens, UniProt P98170); assay: Binding affinity to human His-thr XIAP BIR3 (241 to 356) domain expressed in Escherichia coli measured after 105 mins in dark by time-resolved fluorescence laser-equipped multimode plate reader
[9] = Binding affinity to human His-thr XIAP BIR2 (124 to 240) domain expressed in Escherichia coli measured after 105 mins in dark by time-resolved fluorescence laser-equipped multimode plate reader
[10] = target: E3 ubiquitin-protein ligase XIAP/Receptor-interacting serine/threonine-protein kinase 2 (Homo sapiens, UniProt P98170+O43353); assay: Protac activity at IAP/RIPK2 in human THP-1 cells assessed as induction of RIPK2 degradation by measuring decrease in protein level incubated for 18 hrs by capillary-based immunoassay; type: cell-based
[11] = Lipophilicity, logD of compound at pH 7.4 by Chromatography; type: physicochemical; details: buffer
[12] = as §1; type: functional; details: time 8-48 hrs
[13] = as §2; type: functional; design: scale not given: the % may be the effect or the level left; details: time 8-48 hrs
[14] = target: T1, Protein cereblon/Receptor-interacting serine/threonine-protein kinase 2 (Homo sapiens, UniProt O43353+Q96SW2); assay: Protac activity at CRBN/RIPK2 in human THP-1 cells assessed as induction of RIPK2 degradation by measuring decrease in protein level incubated for 18 hrs by capillary-based immunoassay; type: cell-based
[15] = target: T1, Protein cereblon/Receptor-interacting serine/threonine-protein kinase 2; assay: Protac activity at CRBN/RIPK2 in human whole blood assessed as inhibition of MDP-induced TNFalpha production by ELISA; type: tissue-based
[16] = target: T2, von Hippel-Lindau disease tumor suppressor/Receptor-interacting serine/threonine-protein kinase 2 (Homo sapiens, UniProt O43353+P40337); assay: Protac activity at VHL/RIPK2 in human THP-1 cells assessed as induction of RIPK2 degradation by measuring decrease in protein level incubated for 16 hrs by Western blot analysis; type: cell-based
[17] = target: T2, von Hippel-Lindau disease tumor suppressor/Receptor-interacting serine/threonine-protein kinase 2; assay: Protac activity at VHL/RIPK2 in human whole blood assessed as inhibition of MDP-induced TNFalpha production by ELISA; type: tissue-based

Receptor-interacting serine/threonine-protein kinase 2, sequence (O43353 whole entry): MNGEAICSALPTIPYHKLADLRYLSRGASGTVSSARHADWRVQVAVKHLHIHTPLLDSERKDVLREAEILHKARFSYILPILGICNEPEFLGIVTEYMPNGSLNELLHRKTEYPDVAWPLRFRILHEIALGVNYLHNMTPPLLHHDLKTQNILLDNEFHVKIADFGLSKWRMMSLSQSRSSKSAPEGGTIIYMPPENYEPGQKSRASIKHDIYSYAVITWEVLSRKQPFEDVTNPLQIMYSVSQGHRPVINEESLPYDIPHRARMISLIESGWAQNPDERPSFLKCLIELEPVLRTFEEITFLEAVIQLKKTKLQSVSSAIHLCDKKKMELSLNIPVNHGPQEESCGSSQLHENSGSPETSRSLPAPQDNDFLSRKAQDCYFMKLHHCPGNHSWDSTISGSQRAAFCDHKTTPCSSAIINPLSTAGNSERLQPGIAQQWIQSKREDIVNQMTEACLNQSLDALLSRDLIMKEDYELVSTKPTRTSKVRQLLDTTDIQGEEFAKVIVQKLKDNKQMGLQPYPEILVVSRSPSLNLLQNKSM
T1 sequence (O43353 whole entry): as above
T1 sequence (Q96SW2 whole entry): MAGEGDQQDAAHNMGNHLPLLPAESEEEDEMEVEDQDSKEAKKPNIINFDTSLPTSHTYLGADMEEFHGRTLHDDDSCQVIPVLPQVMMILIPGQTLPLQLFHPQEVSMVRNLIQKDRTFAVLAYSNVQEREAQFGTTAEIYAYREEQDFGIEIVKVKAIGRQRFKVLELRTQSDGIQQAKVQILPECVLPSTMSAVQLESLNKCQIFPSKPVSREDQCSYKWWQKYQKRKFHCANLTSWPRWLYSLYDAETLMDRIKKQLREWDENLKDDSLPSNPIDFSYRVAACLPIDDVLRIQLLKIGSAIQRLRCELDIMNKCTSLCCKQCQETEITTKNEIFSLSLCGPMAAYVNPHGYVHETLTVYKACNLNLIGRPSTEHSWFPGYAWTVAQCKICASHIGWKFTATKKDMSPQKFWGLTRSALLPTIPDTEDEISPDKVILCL
E3 ubiquitin-protein ligase XIAP/Receptor-interacting serine/threonine-protein kinase 2 (Homo sapiens, UniProt O43353+P98170), sequence (P98170 whole entry): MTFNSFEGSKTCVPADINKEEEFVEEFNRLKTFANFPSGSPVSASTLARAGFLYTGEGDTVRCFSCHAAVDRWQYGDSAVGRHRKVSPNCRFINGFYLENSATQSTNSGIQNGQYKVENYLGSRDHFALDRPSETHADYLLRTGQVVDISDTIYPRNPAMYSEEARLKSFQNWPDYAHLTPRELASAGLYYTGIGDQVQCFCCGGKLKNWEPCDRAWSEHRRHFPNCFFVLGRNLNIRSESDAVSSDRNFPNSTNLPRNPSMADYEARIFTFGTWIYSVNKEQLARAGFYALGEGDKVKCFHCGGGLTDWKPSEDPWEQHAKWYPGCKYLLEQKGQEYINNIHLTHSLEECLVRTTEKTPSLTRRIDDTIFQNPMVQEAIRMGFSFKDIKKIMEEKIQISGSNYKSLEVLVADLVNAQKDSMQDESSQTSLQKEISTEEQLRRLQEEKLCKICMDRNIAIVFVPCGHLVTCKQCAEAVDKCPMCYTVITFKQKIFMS
E3 ubiquitin-protein ligase XIAP/Receptor-interacting serine/threonine-protein kinase 2 (Homo sapiens, UniProt O43353+P98170), sequence (O43353 whole entry): as the sequence (O43353 whole entry) above
E3 ubiquitin-protein ligase XIAP, sequence (P98170 whole entry): as the sequence (P98170 whole entry) above
T2 sequence (O43353 whole entry): as the sequence (O43353 whole entry) above
T2 sequence (P40337 whole entry): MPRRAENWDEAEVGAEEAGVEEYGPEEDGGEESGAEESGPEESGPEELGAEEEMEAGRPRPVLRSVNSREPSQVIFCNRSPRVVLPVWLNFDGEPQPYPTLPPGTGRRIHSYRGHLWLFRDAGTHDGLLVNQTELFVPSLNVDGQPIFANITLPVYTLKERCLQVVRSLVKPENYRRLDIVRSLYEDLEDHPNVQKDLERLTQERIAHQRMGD
E3 ubiquitin-protein ligase XIAP/Receptor-interacting serine/threonine-protein kinase 2 (Homo sapiens, UniProt P98170+O43353), sequence (P98170 whole entry): as the sequence (P98170 whole entry) above
E3 ubiquitin-protein ligase XIAP/Receptor-interacting serine/threonine-protein kinase 2 (Homo sapiens, UniProt P98170+O43353), sequence (O43353 whole entry): as the sequence (O43353 whole entry) above

Row | IC50 [1] | IC50 [5] | Compound | further results
1 | 0.0158 µM | 0.158 µM | CN[C@@H](C)C(=O)N[C@H](C(=O)N1CCC[C@H]1c1nc(C(=O)c2ccc(F)cc2)cs1)C1CCN(C(=O)c2cnc(N3CCN(CCOc4cc5ncnc(Nc6n[nH]c(C)c6C)c5cc4S(=O)(=O)C(C)(C)C)CC3)cn2)CC1 | solubility kinetic [2]: 271 µM (≈ 296 µg/mL); CLH [3]: 0.57 mL/min/g; CLH [4]: < 0.46 mL/min/g
2 | 0.00794 µM | 0.01 µM | CN[C@@H](C)C(=O)N[C@H](C(=O)N1CCC[C@H]1c1nc(C(=O)c2ccc(F)cc2)cs1)C1CCN(C(=O)c2ccc(N3CCN(CCCOc4cc5ncnc(Nc6n[nH]c(C)c6C)c5cc4S(=O)(=O)C(C)(C)C)CC3)nc2)CC1 | –
3 | 0.0316 µM | 0.398 µM | CN[C@@H](C)C(=O)N[C@H](C(=O)N1Cc2cc(OCCOCCOCCOCCOc3cc4ncnc(Nc5n[nH]c(C)c5C)c4cc3S(=O)(=O)C(C)(C)C)ccc2CC1C(=O)N[C@@H]1CCCc2ccccc21)C(C)(C)C (single isomer, unassigned) | –
4 | – | 0.00631 µM | CN[C@@H](C)C(=O)N[C@H]1CN(C(=O)c2cnc(N3CCN(CCCOc4cc5ncnc(Nc6n[nH]c(C)c6C)c5cc4S(=O)(=O)C(C)(C)C)CC3)cn2)CC[C@H]2CC[C@@H](C(=O)NC3CCCc4ccccc43)N2C1=O (some centres undefined) | –
5 | 0.0158 µM | 0.0398 µM | CN[C@@H](C)C(=O)N[C@H](C(=O)N1CCC[C@H]1c1nc(C(=O)c2ccc(F)cc2)cs1)C1CCN(C(=O)c2cnc(N3CCC(CCOc4cc5ncnc(Nc6n[nH]c(C)c6C)c5cc4S(=O)(=O)C(C)(C)C)CC3)nc2)CC1 | –
6 | – | – | CN[C@H](C)C(=O)N[C@H](C(=O)N1C[C@@H](NC(=O)c2cnc(N3CCN(CCCOc4cc5ncnc(Nc6n[nH]c(C)c6C)c5cc4S(=O)(=O)C(C)(C)C)CC3)cn2)C[C@H]1C(=O)Nc1c(F)cccc1F)C(C)(C)C | Activity (Rattus norvegicus [6]): Active; Activity (Rattus norvegicus [7]): Active; IC50 [8]: 6.31 µM
7 | 0.00251 µM | 0.0251 µM | Cc1[nH]nc(Nc2ncnc3cc(OCCCN4CCN(C(=O)c5cnc(N6CCN(C[C@H]7CN[C@H](C)CN7CC(=O)N7CC(C)(C)c8ncc(Cc9ccc(F)cc9)cc87)[C@H](C)C6)nc5)CC4)c(S(=O)(=O)C(C)(C)C)cc23)c1C | –
8 | 0.00316 µM | 0.0316 µM | CN[C@@H](C)C(=O)N[C@H](C(=O)N1CCC[C@H]1c1nc(C(=O)c2ccc(F)cc2)cs1)C1CCN(C(=O)c2cnc(N3CCC(CCCOc4cc5ncnc(Nc6n[nH]c(C)c6C)c5cc4S(=O)(=O)C(C)(C)C)CC3)nc2)CC1 | –
9 | 0.0126 µM | 0.0316 µM | CN[C@@H](C)C(=O)N[C@H](C(=O)N1CCC[C@H]1c1nc(C(=O)c2ccc(F)cc2)cs1)C1CCN(C(=O)c2ccc(N3CCN(CCCOc4cc5ncnc(Nc6n[nH]c(C)c6C)c5cc4S(=O)(=O)C(C)(C)C)CC3)cc2)CC1 | –
10 | 0.00251 µM | 0.000158 µM | CN[C@H](C)C(=O)N[C@@H](C(=O)N1C[C@@H](NC(=O)c2cnc(N3CCN(CCCOc4cc5ncnc(Nc6n[nH]c(C)c6C)c5cc4S(=O)(=O)C(C)(C)C)CC3)cn2)C[C@H]1c1nc(C(=O)c2ccc(F)cc2)cs1)C(C)(C)C | –
11 | 0.00631 µM | 0.00794 µM | Cc1[nH]nc(Nc2ncnc3cc(OCCCN4CCN(C(=O)c5cnc(N6CCN(C[C@H]7CN[C@H](C)CN7CC(=O)N7CC(C)(C)c8c7cc(Cc7ccc(F)cc7)c(=O)n8C)[C@H](C)C6)nc5)CC4)c(S(=O)(=O)C(C)(C)C)cc23)c1C | pIC50 [9]: < 4; IC50 [8]: 0.0126 µM
12 | 0.0631 µM | 0.158 µM | CN[C@@H](C)C(=O)N[C@H](C(=O)N1CCC[C@H]1c1nc(C(=O)c2ccc(F)cc2)cs1)C1CCN(C(=O)COCCOCCOCCOCCOc2cc3ncnc(Nc4n[nH]c(C)c4C)c3cc2S(=O)(=O)C(C)(C)C)CC1 | –
13 | 0.00316 µM | 0.0001 µM | CN[C@@H](C)C(=O)N[C@H]1CN(C(=O)c2cnc(N3CCN(CCCOc4cc5ncnc(Nc6n[nH]c(C)c6C)c5cc4S(=O)(=O)C(C)(C)C)CC3)cn2)CC[C@H]2CC[C@@H](C(=O)N[C@@H]3CCCc4ccccc43)N2C1=O | –
14 | 0.01 µM | 0.01 µM | CN[C@@H](C)C(=O)N[C@H](C(=O)N1Cc2cc(OCCOCCOCCOCCOc3cc4nccc(Nc5ccc6scnc6c5)c4cc3S(=O)(=O)C(C)(C)C)ccc2C[C@@H]1C(=O)N[C@@H]1CCCc2ccccc21)C(C)(C)C | DC50 [10]: 0.0002 µM; solubility kinetic [2]: 21 µM (≈ 22.9 µg/mL); chromatographic logD [11]: 6.1
15 | 0.0251 µM | 0.01 µM | CN[C@@H](C)C(=O)N[C@H](C(=O)N1CCC[C@H]1c1nc(C(=O)c2ccc(F)cc2)cs1)C1CCN(C(=O)c2cnc(N3CCC(COc4cc5ncnc(Nc6n[nH]c(C)c6C)c5cc4S(=O)(=O)C(C)(C)C)CC3)nc2)CC1 | –
16 | 0.00158 µM | 0.0126 µM | CN[C@@H](C)C(=O)N[C@H](C(=O)N1CCC[C@H]1c1nc(C(=O)c2ccc(F)cc2)cs1)C1CCN(C(=O)c2cnc(N3CCN(CCCOc4cc5ncnc(Nc6n[nH]c(C)c6C)c5cc4S(=O)(=O)C(C)(C)C)CC3)cn2)CC1 | Activity [12]: >70%; Activity [13]: 100%; pIC50 [9]: 5.8; IC50 [8]: 0.0398 µM
17 | – | 0.0126 µM | CN[C@@H](C)C(=O)N[C@H](C(=O)N1C[C@@H](NC(=O)c2cnc(N3CCN(CCCOc4cc5ncnc(Nc6n[nH]c(C)c6C)c5cc4S(=O)(=O)C(C)(C)C)CC3)cn2)CC1C(=O)NC1CCCc2ccccc21)C(C)(C)C (some centres undefined) | –
18 | – | – | CC(C)(C)S(=O)(=O)c1cc2c(Nc3ccc4scnc4c3)ccnc2cc1OCCOCCOCCOCCOCC(=O)Nc1cccc2c1CN(C1CCC(=O)NC1=O)C2=O (centres undefined) | DC50 [14]: 0.0062 µM; IC50 [15]: 0.0631 µM
19 | – | – | Cc1ncsc1-c1ccc(CNC(=O)[C@@H]2C[C@@H](O)CN2C(=O)[C@@H](NC(=O)COCCOCCOCCOCCOc2cc3nccc(Nc4ccc5scnc5c4)c3cc2S(=O)(=O)C(C)(C)C)C(C)(C)C)cc1 | DC50 [16]: 0.0015 µM; IC50 [17]: 0.1 µM; IC50 [15]: 0.1 µM
20 | 0.002 µM | 0.00794 µM | CN[C@@H](C)C(=O)N[C@H](C(=O)N1CCC[C@H]1c1nc(C(=O)c2ccc(F)cc2)cs1)C1CCN(C(=O)c2cnc(N3CCN(CCCOc4cc5ncnc(Nc6n[nH]c(C)c6C)c5cc4S(=O)(=O)C(C)(C)C)CC3)nc2)CC1 | –
21 | 0.01 µM | 0.126 µM | CN[C@@H](C)C(=O)N[C@H](C(=O)N1CCC[C@H]1c1nc(C(=O)c2ccc(F)cc2)cs1)C1CCN(C(=O)c2ccc(N3CCN(CCOc4cc5ncnc(Nc6n[nH]c(C)c6C)c5cc4S(=O)(=O)C(C)(C)C)CC3)nc2)CC1 | solubility kinetic [2]: > 304 µM; CLH [3]: 1.17 mL/min/g; CLH [4]: 0.55 mL/min/g
22 | 0.01 µM | 0.00501 µM | CN[C@@H](C)C(=O)N[C@H](C(=O)N1CCC[C@H]1c1nc(C(=O)c2ccc(F)cc2)cs1)C1CCN(C(=O)COCCOCCOCCOCCOc2cc3nccc(Nc4ccc5scnc5c4)c3cc2S(=O)(=O)C(C)(C)C)CC1 | solubility kinetic [2]: 308 µM (≈ 348 µg/mL); chromatographic logD [11]: 4.5
23 | 0.0251 µM | 0.002 µM | CC[C@@H](NC(=O)[C@@H]1C[C@H](NC(=O)COCCOCCOCCOCCOc2cc3nccc(Nc4ccc5scnc5c4)c3cc2S(=O)(=O)C(C)(C)C)CN1C(=O)[C@@H](NC(=O)[C@H](C)NC)C(C)(C)C)c1ccccc1 | solubility kinetic [2]: > 235 µM; chromatographic logD [11]: 5.6
24 | 0.02 µM | – | CN[C@@H](C)C(=O)N[C@H](C(=O)N1CCC[C@H]1c1nc(C(=O)c2ccc(F)cc2)cs1)C1CCN(C(=O)c2cnc(N3CCN(CCOc4cc5ncnc(Nc6n[nH]c(C)c6C)c5cc4S(=O)(=O)C(C)(C)C)CC3)nc2)CC1 | solubility kinetic [2]: > 311 µM; CLH [3]: 0.74 mL/min/g; CLH [4]: 0.48 mL/min/g
